Reference: US12636305B2, “Composition and method of applying same to increase survival of fish following catch-and-release situations” (Dutch Creek Nymphing, LLC, priority 2022, dated 2026)
Where “and” joins values, the source holds several entries; their conditions need not be identical. Equal values may be shown once.

Test system: Zebrafish, Danio rerio
Test: Zebrafish swim exhaustion test (vessel plunger model)
Format: in vivo
Design: Immediate recovery 20 min later, % Control (change from the control treatment as a percentage of the control treatment): concentration or dose not given beside the values
Details: for Immediate recovery 20 min later, % Control (change from the control treatment as a percentage of the control treatment) / Immediate recovery 20 min later, Average: 20 minutes after treatment; for Immediate recovery 20 min later, % Control (change from the control treatment as a percentage of the control treatment): versus water control; for Immediate recovery 20 min later, Average: average of 8 fish; for Immediate recovery 20 min later, Average / Immediate recovery 20 min later (water vortex revolutions per minute when the fish failed to maintain swimming in place): post exhaustion; for Immediate recovery 20 min later (water vortex revolutions per minute when the fish failed to maintain swimming in place): individual fish (8 per treatment), 20 minutes after application of the treatment
From the text: This study utilizes a well-recognized vessel plunger model system to determine fish exhaustion during maximal swim performance trials (Usui T, Noble […]. The French press: a repeatable and high-throughput approach to exercising zebrafish (Danio rerio). […] In brief, zebrafish is placed in the top compartment above plunger and evaluated for its ability to swim against circular water currents created by a rotating magnetic stir bar positioned below the plunger. […] Next, the fish is brought to the water surface with the aid of a plunger and the composition is administered to the fish using one of the possible methods of administration. The fish is lowered back into the top compartment, and the individual maximum swimming speed is determined again (post-exhaustion value). This experimental setup allows one to determine the highest tolerated continuous swimming speed associated with control, exhaustion and recovery conditions that models catching, fighting, landing, treating, and releasing fish. […] The experimental methodology was substantially similar to the methods discussed in Usui, et al. (2018). […] Each treatment was administered to eight Zebrafish (n=104 total fish). […] Initial swim strength was measured prior to exhaustion of the fish and subsequent administration of the selected treatment and therefore serves as a baseline. […] After the initial swim strength test, the fish swam to exhaustion (as defined in Usui, et al. […] As anticipated by the Applicant, even post-treatment the fish became exhausted at a lower rpm, but there were significant differences in when each treatment group began to tire.

CC(=O)C(=O)O [Pyruvate, pyruvate]
Immediate recovery 20 min later, % Control (change from the control treatment as a percentage of the control treatment): 9%
Immediate recovery 20 min later, Average: 451 rpm
Immediate recovery 20 min later (water vortex revolutions per minute when the fish failed to maintain swimming in place): 420 rpm (2×) and 430 rpm and 450 rpm (2×) and 510 rpm and 520 rpm and 410 rpm

CC(C)C[C@H](N)C(=O)O [Leucine, leucine]
Immediate recovery 20 min later, % Control (change from the control treatment as a percentage of the control treatment): 10%
Immediate recovery 20 min later, Average: 455 rpm
Immediate recovery 20 min later (water vortex revolutions per minute when the fish failed to maintain swimming in place): 460 rpm and 400 rpm and 470 rpm (2×) and 510 rpm and 490 rpm and 390 rpm and 450 rpm

N=C(N)NCCC[C@H](N)C(=O)O [Arginine, arginine]
Immediate recovery 20 min later, % Control (change from the control treatment as a percentage of the control treatment): 17%
Immediate recovery 20 min later, Average: 484 rpm
Immediate recovery 20 min later (water vortex revolutions per minute when the fish failed to maintain swimming in place): 520 rpm (2×) and 510 rpm and 550 rpm and 450 rpm and 580 rpm and 460 rpm and 280 rpm

O=C([O-])[O-].O=C([O-])[O-].OO.OO.OO.[Na+].[Na+].[Na+].[Na+] [Sodium percarbonate, sodium percarbonate]
Immediate recovery 20 min later, % Control (change from the control treatment as a percentage of the control treatment): 24%
Immediate recovery 20 min later, Average: 514 rpm
Immediate recovery 20 min later (water vortex revolutions per minute when the fish failed to maintain swimming in place): 540 rpm (2×) and 500 rpm and 590 rpm and 530 rpm and 430 rpm and 520 rpm and 460 rpm

O=C(O)CN(CCN(CC(=O)O)CC(=O)O)CC(=O)O [EDTA, ethylenediaminetetraacetic acid]
Immediate recovery 20 min later, % Control (change from the control treatment as a percentage of the control treatment): 8%
Immediate recovery 20 min later, Average: 446 rpm
Immediate recovery 20 min later (water vortex revolutions per minute when the fish failed to maintain swimming in place): 460 rpm (3×) and 430 rpm and 410 rpm (2×) and 420 rpm and 520 rpm

salt
Immediate recovery 20 min later, % Control (change from the control treatment as a percentage of the control treatment): 14%
Immediate recovery 20 min later, Average: 471 rpm
Immediate recovery 20 min later (water vortex revolutions per minute when the fish failed to maintain swimming in place): 410 rpm and 490 rpm (2×) and 510 rpm (2×) and 480 rpm (2×) and 400 rpm

C/C=C/C=C/C(=O)[O-].[K+] [Potassium sorbate, potassium sorbate]
Immediate recovery 20 min later, % Control (change from the control treatment as a percentage of the control treatment): 5%
Immediate recovery 20 min later, Average: 433 rpm
Immediate recovery 20 min later (water vortex revolutions per minute when the fish failed to maintain swimming in place): 380 rpm and 420 rpm and 440 rpm and 460 rpm (2×) and 390 rpm and 500 rpm and 410 rpm
